Common to all, as to format: cell-based
The test system of test [1] is Staphylococcus aureus (MSSA) ATCC10390 (strain B6). The experiment in a line: MIC determination according to CLSI, Staphylococcus aureus (MSSA) ATCC10390. The text has this:
(§1) For example, the compounds of the present invention show antimicrobial, e.g. antibacterial, activity against gram positive bacteria, such as coagulase-positive and coagulase-negative Staphylococci, e.g. Staphylococcus aureus, Styphylococcus epidermis, Staphylococcus haemolyticus, Streptococci, e.g. Streptococcus pyogenes, Streptococcus pneumoniae, Streptococcus agalacticae, Enterococci, e.g. Enterococcus faecium and Moraxellaceae, e.g. Moraxella catarrhalis, Pasteurellaceae, e.g. Haemophilus influenzae, as well as against Mycoplasmactaceae, Chlamydiaceae, e.g. Chlamydia trachomatis, Chlamydia pneumoniae and obligatory anaerobes, e.g. Bacteroides fragilis, Clostridium difficile; in vitro in the Agar Dilution Test or Microdilution Test according to the Climical and Laboratory Standards Institute (CLSI, former National Committee for Clinical Laboratory Standards (NCCLS) 2006, Document M7-A7 Vol. 26, No. 2: “Methods for dilution Antimicrobial Susceptibility Tests for Bacteria that Grow Aerobically—Seventh Edition, Approved Standard”; and in the in vitro determination of the antibacterial activity against anaerobic bacteria according to National Committee for Clinical Laboratory Standards (NCCLS) VOL. 24, No. 2, M11-A5, Methods for Antimicrobal Susceptibility Testing of Anaerobic Bacteria; Approved Standard; Sixth Edition (2004) and in vivo in the septicaemic mouse model against Staphylococcus aureus.
(§2) The antibacterial activity expressed as minimal inhibitory concentration (MIC) was determined according to the approved standard reference recommendations of CLSI (former NCCLS).

The test system of test [2] is Staphylococcus aureus (MSSA) ATCC29213 (strain B7). The experiment in a line: MIC determination according to CLSI, Staphylococcus aureus (MSSA) ATCC29213.
Text: as §1, §2

Test [3] deals with Enterococcus faecalis ATCC29212 (strain B4). Put plainly: MIC determination according to CLSI, Enterococcus faecalis ATCC29212.
Text: as §1, §2

In test [4] the test system is Enterococcus faecalis ATCC51299 (strain B5). Put plainly: MIC determination according to CLSI, Enterococcus faecalis ATCC51299.
Text: as §1, §2

The test system of test [5] is Moraxella catarrhalis ATCC43618 (strain B407). Put plainly: MIC determination according to CLSI, Moraxella catarrhalis ATCC43618.
Text: as §1, §2

Test [6] deals with Escherichia coli ATCC25922 (strain B1). Put plainly: MIC determination according to CLSI, Escherichia coli ATCC25922.
Text: as §1, §2

For test [7], the system named is Streptococcus pneumoniae ATCC49619 (strain B11). The experiment in a line: MIC determination according to CLSI, Streptococcus pneumoniae ATCC49619.
Text: as §1, §2

Test [8] concerns Staphylococcus aureus, Enterococcus faecalis, Streptococcus pneumoniae, Moraxella catarrhalis and Escherichia coli. Put plainly: Antibacterial activity (MIC) against the panel of clinical relevant bacterial pathogens. On the procedure: as §2
[9] abbreviates: Staphylococcus aureus (MSSA), ATCC10390, strain B6, read-out: MIC.
The mark [10] stands for this setting: Staphylococcus aureus (MSSA), ATCC29213, strain B7, read-out: MIC.
The mark [11] stands for this setting: ATCC29212, strain B4, read-out: MIC.
[12] abbreviates: ATCC51299, strain B5, read-out: MIC.
[13] abbreviates: ATCC43618, strain B407, read-out: MIC.
Where [14] appears, read: ATCC25922, strain B1, read-out: MIC.
The mark [15] stands for this setting: ATCC49619, strain B11, read-out: MIC.

≈ marks a conversion by molar mass, not a printed value. Like-named read-outs stand apart in the source and are kept apart here. Some results are limits rather than exact numbers.

The term MIC denotes the lowest concentration that inhibits growth of the organism. In the case of `CC[C@]1(C)C[C@@H](OC(=O)COc2cccc(C)c2)[C@]2(C)C(C)CCC3(CCC(=O)C32)[C@@H](C)[C@@H]1O` (stereo partly drawn) [Example 41, 14-O-[(3-Methyl-phenoxy)-acetyl]-19,20-dihydromutilin], the MIC was 0.05 µg/mL (≈ 0.106 µM) in test [1] (Staphylococcus aureus); 0.1 µg/mL (≈ 0.212 µM) in test [2] (Staphylococcus aureus); over 6.4 µg/mL in test [3] (ATCC29212); over 6.4 µg/mL in test [4] (ATCC51299); 0.025 µg/mL (≈ 0.0531 µM) in test [5] (ATCC43618); over 6.4 µg/mL in test [6] (ATCC25922). The MIC in test [7] (ATCC49619) was over 0.64 µg/mL.

In the case of `C=C[C@]1(C)C[C@@H](OC(=O)CSc2cccc(C)c2)[C@]2(C)C(C)CCC3(CCC(=O)C32)[C@@H](C)[C@@H]1O` (stereo partly drawn) [Example 39, 14-O-[(3-Methyl-phenylsulfanyl)-acetyl]-mutilin], the MIC in test [1] (setting [9]) was 0.025 µg/mL (≈ 0.0516 µM); in test [2] (setting [10]) it was 0.05 µg/mL (≈ 0.103 µM); in test [3] (setting [11]), over 6.4 µg/mL; in test [4] (setting [12]) it was over 6.4 µg/mL; in test [5] (setting [13]), 0.0125 µg/mL (≈ 0.0258 µM); in test [6] (setting [14]), over 6.4 µg/mL. Further, the MIC in test [7] (setting [15]) was 0.16 µg/mL (≈ 0.33 µM).

As to `C=C[C@]1(C)C[C@@H](OC(=O)COc2cccc(C)c2)[C@]2(C)[C@H](C)CC[C@]3(CCC(=O)[C@H]32)[C@@H](C)[C@@H]1O` [Example 40, 14-O-[(3-Methyl-phenoxy)-acetyl]-mutilin], the MIC in test [1] (Staphylococcus aureus) was 0.05 µg/mL (≈ 0.107 µM); in test [2] (Staphylococcus aureus), 0.05 µg/mL (≈ 0.107 µM); in test [3] (ATCC29212), over 6.4 µg/mL; in test [4] (ATCC51299), over 6.4 µg/mL; in test [5] (ATCC43618), 0.0125 µg/mL (≈ 0.0267 µM); in test [6] (ATCC25922), over 6.4 µg/mL. The compound further registered a minimum inhibitory concentration (MIC) in test [7] (ATCC49619) of 0.64 µg/mL (≈ 1.37 µM).

Take `C=C[C@]1(C)C[C@@H](OC(=O)CSc2cccc(CNC(=O)[C@H]3CCCCN3)c2)[C@]2(C)C(C)CCC3(CCC(=O)C32)[C@@H](C)[C@@H]1O` (stereo partly drawn) [Example 1, 14-O-[(3-{[((R)-Piperidine-2-carbonyl)-amino]-methyl}-phenylsulfanyl)-acetyl]-mutilin]: the minimal inhibitory concentration (MIC) is at most 0.0125 µg/mL in test [1] (setting [9]); at most 0.0125 µg/mL in test [2] (setting [10]); 1.6 µg/mL (≈ 2.62 µM) in test [3] (setting [11]); 1.6 µg/mL (≈ 2.62 µM) in test [4] (setting [12]); 0.0125 µg/mL (≈ 0.0205 µM) in test [5] (setting [13]); 12.8 µg/mL (≈ 21 µM) in test [6] (setting [14]). For the same compound, in test [7] (setting [15]), the MIC was at most 0.0025 µg/mL. Besides, the “factor by which MICs are lower than the MICs of examples 39-41” value in test [8] (against at least one of the strains shown in Table 1) is recorded as at least 2. In test [8] (in vitro, S. aureus, E. faecalis, S. pneumoniae, M. catarrhalis, E. coli), the “activity against the clinical relevant bacterial pathogens (in words)” value was “very good activity”.

The values are drawn from patent US8173685B2, “Pleuromutilin derivatives and their use as antimicrobials” (Nabriva Therapeutics AG, priority 2007, dated 2012).
